Assay results published in paper PMC9135253, “Potential of phenothiazines to synergistically block calmodulin and reactivate PP2A in cancer cells” (PLoS ONE, 2022).
“And” between values parts separate entries of the source, which are not always exact repeats. Equal values may be shown once. Read-outs that look alike come from different tables or passages of the source. Blank lines part the entries; values can stand above or below the compound they belong to.

Experiments:
Type in all cases: cell-based
[1] = test system: H-RasG12V (Rluc8-/GFP2-tagged) in HEK-293 EBNA cells; experiment: H-RasG12V nanoclustering-BRET assay; settings: for H-RasG12V BRET: compounds 20 μM, FTI-277 1 μM, OphA 2.5 μM, 24 h
[2] = test system: K-RasG12V (Rluc8-/GFP2-tagged) in HEK-293 EBNA cells; experiment: K-RasG12V nanoclustering-BRET assay; settings: for K-RasG12V BRET: compounds 20 μM, FTI-277 1 μM, OphA 2.5 μM, 24 h
[3] = test system: pERK/ERK in MIA PaCa-2 cells; experiment: Western blot of MAPK signaling output (pERK/ERK); settings: for potency relative to Flu-M in MAPK-signaling (pERK) inhibition: MIA PaCa-2; for normalized pERK/ERK ratio %: MIA PaCa-2 + EGF
[4] = test system: A375 (BRAF-V600E) 3D spheroids; experiment: 3D spheroid formation assay (alamarBlue), A375
Description: (§1) 3D spheroid formation assays were performed in 96-well low-attachment, suspension culture plates (cat. no. 655185, Cellstar, Greiner Bio-One) under serum free conditions. About 1000 cells per well were seeded in 50 μL RPMI medium (cat. no. 52400–025, Gibco, ThermoFisher Scientific) containing 0.5% (v/v) MethoCult (cat. no. SF H4636, Stemcell technologies), 1X B27 (cat. no. 17504044, Gibco, ThermoFisher Scientific), 25 ng/mL EGF (cat. no. E9644, Sigma-Aldrich) and 25 ng/ mL FGF (cat. no. RP-8628, ThermoFisher Scientific). Cells were cultured for 3 days and then treated with compounds or vehicle control (DMSO 0.1% (v/v) in growth medium) for another 3 days. The cells were supplemented with fresh growth medium on the third day together with the drug treatment. Spheroid formation efficiency was analyzed by alamarBlue assay reagent (cat. no. DAL1100, ThermoFisher Scientific).
(§2) A 10% (v/v) final volume of alamarBlue reagent was added to each well of the plate and incubated for 4 h at 37°C. Then the fluorescence intensity (λexcitation 560 ± 5 nm and λemission 590 ± 5 nm) was measured using the FLUOstar OPTIMA plate reader (BMG Labtech, Germany).
(§3) (A) Heatmap of ATARiS gene sensitivity scores of two KRAS dependent cell lines (NCI-H358 and MDA-MB-231) and a BRAF dependent cell line (A375). Negative values (shaded red) indicate sensitivity of the cell line proliferation to the knockdown of shown genes, whereas positive scores (shaded blue) indicate insensitivity. (B) IC50 values for indicated compounds in Ras pathway mutant cell lines NCI-H358, MDA-MB231 and A375 grown as 3D spheroids under serum free conditions. […] Statistical comparisons were done using the average values across all three cell lines. […] Positive scores indicate synergistic drug interactions whereas negative scores would denote antagonistic drug interactions. A score of zero would indicate no antagonistic or synergistic effect. (D) Flow cytometric analysis of apoptosis in MDA-MB-231 cells. […] Benzethonium chloride and DMSO treated cells were used as positive and negative controls, respectively, for setting the gates. Percentage of total apoptotic cells (early and late stage) from two biological repeats (mean ± SD) is presented. Statistical analysis was performed using Fisher’s exact test comparing the total number of viable and apoptotic cells from two biological repeats. (E) Effect of inhibitors on cellular apoptosis studied using Caspase-3/7Glo assay. […] The caspase-3/7 activity was measured as a luminescence read-out and normalized to the vehicle control, 0.05% (v/v) DMSO. […] GAPDH detection was used as loading control.

[5] = test system: NCI-H358 (KRAS-G12C) 3D spheroids; experiment: 3D spheroid formation assay (alamarBlue), NCI-H358
Description: as §1, §2, §3

[6] = test system: MDA-MB-231 (KRAS-G13D) 3D spheroids; experiment: 3D spheroid formation assay (alamarBlue), MDA-MB-231
Description: as §1, §2, §3

MDA-MB-231 cells [7] = experiment: Flow cytometry-based apoptosis assay (Annexin V-FITC / 7-AAD); settings: DT-061 10 μM, calmidazolium 5 μM or combination, 24 h
Description: MDA-MB-231 cells were grown for 24 h in complete RPMI medium. The next day the cells were treated with inhibitors for 24 h. […] The cells were labelled using the Annexin V-FITC / 7-AAD apoptosis-detection kit (Beckman-Coulter, cat. no. B60224-AB) according to the manufacturer’s instruction.
as §3, with “Negative” for “(A) Heatmap of ATARiS gene sensitivity scores of two KRAS dependent cell lines (NCI-H358 and MDA-MB-231) and a BRAF dependent cell line (A375). Negative”

HEK-293 EBNA cells = experiment: 2D cell viability assay (alamarBlue), HEK-293 EBNA; settings: 72 h
MDA-MB-231 cells [8] = experiment: 2D cell viability assay (alamarBlue), MDA-MB-231; settings: MDA-MB-231, 72 h
MIA PaCa-2 cells = experiment: 2D cell viability assay (alamarBlue), MIA PaCa-2; settings: MIA PaCa-2, 72 h
[9] = H-RasG12V nanoclustering-BRET dose response (0.1–80 μM; OphA 0.3–20 μM), replicates
[10] = H-RasG12V nanoclustering-BRET, mean
[11] = K-RasG12V nanoclustering-BRET dose response (0.1–80 μM; OphA 0.3–20 μM), replicates
[12] = K-RasG12V nanoclustering-BRET, mean
[13] = 2 h, trametinib 1 μM, AMG-510 1 μM, calmidazolium 20 μM, DT-061 20 μM, combination each 10 μM, fluphenazine mustard 20 μM, replicates N1-N3
[14] = A375 3D spheroids, serum free, 3 days treatment, replicates N1, N2
[15] = Homo sapiens, A-375, 72 h, A375 3D spheroids, serum free, 3 days treatment, replicates N1, N2
[16] = Homo sapiens, A-375, A375 3D spheroids, Mean, n = 2
[17] = Homo sapiens, NCI-H358, NCI-H358 3D spheroids, Mean, n = 2, read-out: IC50 values
[18] = NCI-H358 3D spheroids, serum free, 3 days treatment, replicates N1, N2, read-out: IC50 values
[19] = Homo sapiens, MDA-MB-231, MDA-MB-231 3D spheroids, Mean, n = 2, read-out: IC50 values
[20] = MDA-MB-231 3D spheroids, serum free, 3 days treatment, replicates N1, N2, read-out: IC50 values
[21] = A/D plasmid ratio 4/1, individual replicates N1.1-N2.4
[22] = early and late stage, replicates N1, N2
[23] = A/D plasmid ratio 4/1, individual replicates N1.1-N3.4

SMILES: CC(C)=C[C@H]1C[C@H](C)[C@]2(CC[C@]3(C)C[C@H]4[C@H](C(=O)C[C@@]4(C)O)/C(C=O)=C\C[C@H]32)O1 [ophiobolin A]
DSS3 BRET score [1, 9]: 7.5 and 2.2
DSS3 BRET score [1, 10]: 4.85
H-RasG12V BRET ([1]; mean): 87.26
DSS3 BRET score [2, 11]: 21.8 and 20.9
DSS3 BRET score [2, 12]: 21.35
K-RasG12V BRET ([2]; mean): 75.39

SMILES: CC(=O)Nc1cccc(-n2c(=O)n(C3CC3)c(=O)c3c(Nc4ccc(I)cc4F)n(C)c(=O)c(C)c32)c1 [trametinib]
potency relative to Flu-M in MAPK-signaling (pERK) inhibition [3]: at least 20 times
normalized pERK/ERK ratio % [3, 13]: 32.0097% and 10.8438% and 18.176%
normalized pERK/ERK ratio % ([3]; same treatments, mean): 20.34%

IC50 [4, 14]: 360 nM
IC50 [4, 15]: 250 nM
IC50 [4, 16]: 310 nM
IC50 [5, 17]: 690 nM
IC50 [5, 18]: 390 nM and 980 nM
IC50 ([6]; Homo sapiens, MDA-MB-231, 72 h, MDA-MB-231 3D spheroids, serum free, 3 days treatment, replicates N1, N2, read-out: IC50 values): 430 nM
IC50 [6, 19]: 590 nM
IC50 [6, 20]: 740 nM
SMILES: CN1CCN(CCCN2c3ccccc3Sc3ccc(C(F)(F)F)cc32)CC1 [triflouperazine, trifluoperazine]

IC50 [4, 14]: 1510 nM
IC50 [4, 15]: 1100 nM
IC50 [4, 16]: 1310 nM
IC50 ([5]; Homo sapiens, NCI-H358, 72 h, NCI-H358 3D spheroids, serum free, 3 days treatment, replicates N1, N2, read-out: IC50 values): 1300 nM
IC50 [5, 17]: 1300 nM
IC50 [5, 18]: 1290 nM
IC50 [6, 19]: 1370 nM
IC50 [6, 20]: 830 nM and 1900 nM
SMILES: Clc1ccc(C(c2ccc(Cl)cc2)n2cc[n+](CC(OCc3ccc(Cl)cc3Cl)c3ccc(Cl)cc3Cl)c2)cc1 (stereo not shown) [calmidazolium]
DSS3 BRET score [1, 9]: 4.1 and 3.4
DSS3 BRET score [1, 10]: 3.75
H-RasG12V BRET [1, 21]: 65.4602 and 65.6531 and 66.0593 and 64.447 and 71.623 and 67.855 and 69.3028 and 69.9269
H-RasG12V BRET ([1]; mean): 67.54
normalized pERK/ERK ratio % ([3]; 2 h, trametinib 1 μM, AMG-510 1 μM, calmidazolium 20 μM, DT-061 20 μM, combination each 10 μM, fluphenazine mustard 20 μM, replicates N1-N3, listed as camidazolium): 79.2728% and 51.9352% and 71.8958%
apoptotic cells (%) (MDA-MB-231 cells [7]; [22]): 46.8015% and 19.4293%
apoptotic cells (%) (MDA-MB-231 cells [7]; mean): 33.12%
DSS3 BRET score [2, 11]: 7.4 and 5.3 and 6.1
DSS3 BRET score [2, 12]: 6.27
K-RasG12V BRET [2, 23]: 56.1219 and 37.0972 and 36.7653 and 36.0615 and 56.3093 and 55.7392 and 55.8068 and 41.7975 and 44.4475 and 43.3047 and 43.8108 and 37.7034
K-RasG12V BRET ([2]; mean): 45.41

SMILES: COC(=O)[C@H](CCSC)NC(=O)c1ccc(NC[C@@H](N)CS)cc1-c1ccccc1 [FTI-277]
H-RasG12V BRET [1, 21]: 55.9675 and 54.6788 and 57.991 and 55.5016 and 58.8518 and 57.6476 and 60.7427 and 58.4164
H-RasG12V BRET ([1]; mean): 57.47
K-RasG12V BRET [2, 23]: 72.2368 and 88.8749 and 88.6228 and 90.7219 and 73.1065 and 73.006 and 71.9005 and 74.3032 and 75.1082 and 75.0152 and 73.992 and 87.4754
K-RasG12V BRET ([2]; mean): 78.7

SMILES: C=CC(=O)N1CCN(c2nc(=O)n(-c3c(C)ccnc3C(C)C)c3nc(-c4c(O)cccc4F)c(F)cc23)[C@@H](C)C1 [AMG-510]
potency relative to Flu-M in MAPK-signaling (pERK) inhibition [3]: at least 20 times
normalized pERK/ERK ratio % [3, 13]: 29.0898% and 30.5706% and 27.2049%
normalized pERK/ERK ratio % ([3]; same treatments, mean): 28.96%
2D monolayer DSS3 (HEK-293 EBNA cells; Mean): 15.93
2D monolayer DSS3 (HEK-293 EBNA cells; replicates N1-N3): 22.8 and 12.8 and 12.2
2D monolayer DSS3 (MDA-MB-231 cells [8]; Mean): 4.2
2D monolayer DSS3 (MDA-MB-231 cells [8]; replicates N1-N3): 1.7 and 3 and 7.9
2D monolayer DSS3 (MIA PaCa-2 cells; Mean): 64.97
2D monolayer DSS3 (MIA PaCa-2 cells; replicates N1-N3): 62.6 and 65 and 67.3

SMILES: C=CC(=O)N1CCN(c2ncnc3c(F)c(-c4c(O)cccc4F)c(Cl)cc23)CC1 [ARS-1620]
IC50 [4, 15]: > 40000 nM
IC50 [4, 16]: > 40000 nM
IC50 ([5]; Homo sapiens, NCI-H358, 72 h, read-out: IC50 values, NCI-H358 3D spheroids, serum free, 3 days treatment, replicates N1, N2): 600 nM
IC50 ([5]; Homo sapiens, NCI-H358, read-out: IC50 values, NCI-H358 3D spheroids, Mean, n = 2): 460 nM
IC50 ([5]; read-out: IC50 values, NCI-H358 3D spheroids, serum free, 3 days treatment, replicates N1, N2): 320 nM
IC50 ([6]; Homo sapiens, MDA-MB-231, 72 h, read-out: IC50 values): > 40000 nM
IC50 ([6]; Homo sapiens, MDA-MB-231, read-out: IC50 values): > 40000 nM

SMILES: CC(C)(C)CC(C)(C)c1ccc(OCCOCC[N+](C)(C)Cc2ccccc2)cc1 [benzethonium Cl, Benzethonium chloride]
apoptotic cells (%) (MDA-MB-231 cells [7]; [22]): 93.0493% and 96.0998%
apoptotic cells (%) (MDA-MB-231 cells [7]; mean): 94.57%

SMILES: OCCN1CCN(CCCN2c3ccccc3Sc3ccc(C(F)(F)F)cc32)CC1 [fluphenazine]
DSS3 BRET score [1, 9]: 0
DSS3 BRET score [1, 10]: 0
H-RasG12V BRET [1, 21]: 118.298 and 116.824 and 118.266 and 116.921 and 102.254 and 101.937 and 104.771 and 99.5349
H-RasG12V BRET ([1]; mean): 109.85
2D monolayer DSS3 (HEK-293 EBNA cells; Mean): 9.5
2D monolayer DSS3 (HEK-293 EBNA cells; replicates N1-N3): 9.9 and 9.2 and 9.4
2D monolayer DSS3 (MDA-MB-231 cells [8]; Mean): 28.4
2D monolayer DSS3 (MDA-MB-231 cells [8]; replicates N1-N3): 26.6 and 29.8 and 28.8
2D monolayer DSS3 (MIA PaCa-2 cells; Mean): 46.37
2D monolayer DSS3 (MIA PaCa-2 cells; replicates N1-N3): 33.6 and 46.1 and 59.4
effect on the RasG12V-BRET signals (in words) ([2]; K-RasG12V and H-RasG12V biosensors): Neither the PP2A activator DT-061, nor Flu had an effect
DSS3 BRET score [2, 11]: 0
DSS3 BRET score [2, 12]: 0
K-RasG12V BRET [2, 23]: 116.984 and 104.752 and 101.237 and 99.6761 and 117.221 and 114.254 and 111.203 and 106.486 and 102.332 and 104.758 and 105.192 and 105.738
K-RasG12V BRET ([2]; mean): 107.49
